In PubChem BioAssay (NCI):
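Results reflect a 48-hour exposure of cells in 96-well plates to compound at five concentrations. GI50 marks 50% less growth. At the TGI there is no net growth.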

system: M14 melanoma; assay: NCI-60 cell line screen, 48 h

SMILES	TGI	GI50
Cn1c(SCc2ccc(F)cc2)nnc1C12CC3CC(CC(C3)C1)C2	71.8 µM	
COC(=O)/C=C\C(C#N)(C#N)N=Cc1ccc(C)cc1	4.42 µM	
CC(c1ccccc1)N1CCN(C(C)c2ccccc2)CC1 (stereo not drawn)	53 µM	
CCCCCC#CCOC(=O)C(=[N+]=[N-])P(=O)(c1ccccc1)c1ccccc1	> 10 µM	
COc1ccc(C(=O)/C=C/c2ccc(OCCCOc3ccc(/C=C/C(=O)c4ccc(OC)cc4)cc3)cc2)cc1	> 100 µM	
CCOc1cc(/C=C2/C(C)=NN(c3cccc(Cl)c3)/C2=N/c2nc3ccccc3s2)ccc1O	75.5 µM	
COc1ccc(N2C(=O)CC(=O)N(NC(=O)C(C)Oc3ccccc3C)C2=S)cc1 (stereo not drawn)	> 100 µM	
COc1cc(OC)cc(C(=O)CC(=O)c2cc(OC)cc(OC)c2)c1	> 100 µM	
COc1ccc(C2c3cn[nH]c3CC3CCCCC32)cc1 (stereo not drawn)	36.6 µM	
O=C1OC(C2Cc3ccc4ccccc4c3C2=O)c2ccccc21 (stereo not drawn)	> 100 µM	
C/C(=N\N=C1/C(=O)OC(c2ccccc2)=C1C(=O)c1ccccc1)c1ccc([N+](=O)[O-])cc1	> 100 µM	
O=C(O)[C@H]1CCCN1CP(=O)(O)CN1CCC[C@@H]1C(=O)O	> 100 µM	
O=S(=O)(O)C(CO)c1ccccc1 (stereo not drawn) (tested in a mixture with another compound)	> 100 µM	
O=C1CC2(CCC(O)(c3ccc4ccccc4c3)C(C(=O)c3ccc4ccccc4c3)C2)C(=O)c2ccccc2N1 (stereo not drawn)	> 100 µM	
Cc1nc(C)c(N2CCN([N+](=O)[O-])CC2)c(=O)[nH]1	> 100 µM	
Cc1nn(-c2ccccc2)c2c1C(c1cc3ccccc3nc1Cl)NC(=O)N2 (stereo not drawn)	42.4 µM	
COc1ccc(C2OC(c3ccncc3)=NN2C)cc1F (stereo not drawn)	> 100 µM	
Cc1cc(/N=C/c2ccc(N(C)C)cc2)n(-c2ccccc2)n1	> 100 µM	
COC(=O)C(Cc1ccc2c(c1)CCC2)Cc1ccc2c(c1)CCC2	> 100 µM	

SMILES	TGI	GI50
O=C1NC2c3c(I)sc(I)c3C(O)C2O1 (stereo not drawn)	> 100 µM	
O=C(O)CN1CCN2CCCCCN(CC1)CCN(CC(=O)O)CC2	> 100 µM	
Cc1cccc(C)c1NC(=O)C(Cc1c[nH]c2ccccc12)NC(=O)OCc1ccccc1 (stereo not drawn)	31.7 µM	
S=C1NC2=C(CSC/C2=C\c2cccc(Br)c2)C(c2cccc(Br)c2)N1 (stereo not drawn)	> 100 µM	
CSC1=N/C(=C\c2ccc(C)cc2)C(=O)N1CN1CCCCC1	> 100 µM	
Cc1ccc(C2=CC(=O)OC(C[P+](c3ccccc3)(c3ccccc3)c3ccccc3)(c3ccccc3)O2)cc1 (stereo not drawn)	32 µM	
O=c1oc2cc(O)ccc2c(O)c1C(c1ccccc1)c1c(O)c2ccc(O)cc2oc1=O	> 100 µM	
C[n+]1c(/C=C/c2c(O)ccc3ccccc23)ccc2ccccc21	12.8 µM	5.8 µM
O=C(NCP(=O)(Oc1ccccc1)Oc1ccccc1)OCc1ccccc1	> 100 µM	
Cc1c(/C=N\NC(=S)NCCNC(=S)N/N=C\c2c(C)n(C)n(-c3ccccc3)c2=O)c(=O)n(-c2ccccc2)n1C	> 100 µM	
Cc1c(O)nc(-n2[nH]c3c(c2=O)CCCC3)[nH]c1=O	> 100 µM	
CCCNc1ncnc2c1ncn2C	> 100 µM	
C=CCc1cc(-c2nc(=S)[nH][nH]2)ccc1N=NNc1ccc(C(=O)O)cc1	> 100 µM	
O=C(O)CN1CCNCCN(CC(=O)O)CCN(CC(=O)O)CCNCC1	> 100 µM	
CC(NC(=O)Cc1ccccc1)NC(=O)C(C)C(=O)Nc1ccccc1 (stereo not drawn)	> 100 µM	
CCOC(=O)c1c(-c2ccc(O)c(OC)c2)c(C#N)c(=S)n(C2OC(CO)C(O)C(O)C2O)c1-c1ccccc1 (stereo not drawn)	> 100 µM	
C=C1CC(C#N)(C#N)[C@H]2C3CCCC3C[C@@H]12 (stereo partly drawn) (tested in a mixture with another compound)	29.2 µM	
COC(C)(C)C1(O)CC[C@@H](C)CC1=O (stereo partly drawn)	> 100 µM	
Nc1ccc(N=Nc2c(S(=O)(=O)O)cc3ccccc3c2S(=O)(=O)O)cc1	> 100 µM	

system: OVCAR-5 ovarian; assay: NCI-60 cell line screen, 48 h

SMILES	TGI	GI50
CC1=CCC([C@@](C)(O)CCCC(C)(C)N=C=S)CC1 (stereo partly drawn)	34.9 µM	
CCN1CN(c2ccccc2)C2(CCN(CC3COc4ccccc4O3)CC2)C1=O (stereo not drawn)	> 100 µM	
C=C1C(=O)CC2C1CC(=O)/C(C)=C/CCC(C)(O)C2O (stereo not drawn)	27.7 µM	
N[C@@H](Cc1ccccc1)C(=O)N1CCC[C@@H]1P(=O)(Oc1ccccc1)Oc1ccccc1	> 100 µM	
O=c1[nH][nH]c(=O)n1CCCCCCn1c(=O)[nH][nH]c1=O	> 100 µM	
C[C@H](CCC(=O)O)[C@H]1CC[C@H]2[C@@H]3C(=O)C[C@@H]4C[C@H](O)CC[C@]4(C)[C@H]3C[C@H](O)[C@]12C	> 100 µM	
CC(=O)NC1C(OCc2ccccc2)OC(CO)C(O)C1OCC(=O)N[C@@H](C)C(=O)N[C@H](CCC(=O)NCCCNc1c2ccccc2nc2cccc([N+](=O)[O-])c12)C(N)=O (stereo partly drawn)	5.8 µM	
COc1ccc(-c2nc(SCC(=O)NNC(=S)Nc3ccccc3)[nH]c2-c2ccc(OC)cc2)cc1	49 µM	
O=C(O)c1ccccc1CC(Cc1ccc2c(c1)CCC2)C(=O)O (stereo not drawn)	> 100 µM	
Cn1c(SCc2ccc(F)cc2)nnc1C12CC3CC(CC(C3)C1)C2	> 100 µM	
COC(=O)/C=C\C(C#N)(C#N)N=Cc1ccc(C)cc1	37.8 µM	
CC(c1ccccc1)N1CCN(C(C)c2ccccc2)CC1 (stereo not drawn)	> 100 µM	
CCCCCC#CCOC(=O)C(=[N+]=[N-])P(=O)(c1ccccc1)c1ccccc1	> 10 µM	
COc1ccc(C(=O)/C=C/c2ccc(OCCCOc3ccc(/C=C/C(=O)c4ccc(OC)cc4)cc3)cc2)cc1	> 100 µM	
CCOc1cc(/C=C2/C(C)=NN(c3cccc(Cl)c3)/C2=N/c2nc3ccccc3s2)ccc1O	> 100 µM	
COc1ccc(N2C(=O)CC(=O)N(NC(=O)C(C)Oc3ccccc3C)C2=S)cc1 (stereo not drawn)	> 100 µM	
COc1cc(OC)cc(C(=O)CC(=O)c2cc(OC)cc(OC)c2)c1	> 100 µM	
COc1ccc(C2c3cn[nH]c3CC3CCCCC32)cc1 (stereo not drawn)	34.8 µM	
O=C1OC(C2Cc3ccc4ccccc4c3C2=O)c2ccccc21 (stereo not drawn)	> 100 µM	
C/C(=N\N=C1/C(=O)OC(c2ccccc2)=C1C(=O)c1ccccc1)c1ccc([N+](=O)[O-])cc1	> 100 µM	
O=C(O)[C@H]1CCCN1CP(=O)(O)CN1CCC[C@@H]1C(=O)O	> 100 µM	
O=S(=O)(O)C(CO)c1ccccc1 (stereo not drawn) (tested in a mixture with another compound)	> 100 µM	
O=C1c2ccccc2C(=O)N1n1c(Cc2ccc([N+](=O)[O-])cc2)n[nH]c1=O	> 100 µM	
O=C1CC2(CCC(O)(c3ccc4ccccc4c3)C(C(=O)c3ccc4ccccc4c3)C2)C(=O)c2ccccc2N1 (stereo not drawn)	> 100 µM	

SMILES	TGI	GI50
Cc1nn(-c2ccccc2)c2c1C(c1cc3ccccc3nc1Cl)NC(=O)N2 (stereo not drawn)	43.8 µM	
COc1ccc(C2OC(c3ccncc3)=NN2C)cc1F (stereo not drawn)	> 100 µM	
Cc1cc(/N=C/c2ccc(N(C)C)cc2)n(-c2ccccc2)n1	> 100 µM	
COC(=O)C(Cc1ccc2c(c1)CCC2)Cc1ccc2c(c1)CCC2	> 100 µM	
O=C1NC2c3c(I)sc(I)c3C(O)C2O1 (stereo not drawn)	> 100 µM	
O=C(O)CN1CCN2CCCCCN(CC1)CCN(CC(=O)O)CC2	> 100 µM	
Cc1cccc(C)c1NC(=O)C(Cc1c[nH]c2ccccc12)NC(=O)OCc1ccccc1 (stereo not drawn)	51.6 µM	
S=C1NC2=C(CSC/C2=C\c2cccc(Br)c2)C(c2cccc(Br)c2)N1 (stereo not drawn)	> 100 µM	
CSC1=N/C(=C\c2ccc(C)cc2)C(=O)N1CN1CCCCC1	> 100 µM	
Cc1ccc(C2=CC(=O)OC(C[P+](c3ccccc3)(c3ccccc3)c3ccccc3)(c3ccccc3)O2)cc1 (stereo not drawn)	42.7 µM	
O=c1oc2cc(O)ccc2c(O)c1C(c1ccccc1)c1c(O)c2ccc(O)cc2oc1=O	> 100 µM	
C[n+]1c(/C=C/c2c(O)ccc3ccccc23)ccc2ccccc21	15.2 µM	7.19 µM
O=C(NCP(=O)(Oc1ccccc1)Oc1ccccc1)OCc1ccccc1	> 100 µM	
Cc1c(/C=N\NC(=S)NCCNC(=S)N/N=C\c2c(C)n(C)n(-c3ccccc3)c2=O)c(=O)n(-c2ccccc2)n1C	> 100 µM	
CC(C)c1cc2c(c(O)c1O)[C@@]1(C(=O)O)CCCC(C)(C)[C@@H]1CC2	40 µM	
Cc1c(O)nc(-n2[nH]c3c(c2=O)CCCC3)[nH]c1=O	> 100 µM	
C=CCn1c(=O)c(C(=O)Nc2nc(C34CC5CC(CC(C5)C3)C4)cs2)c(O)c2ccccc21	> 100 µM	
C=CCc1cc(-c2nc(=S)[nH][nH]2)ccc1N=NNc1ccc(C(=O)O)cc1	> 100 µM	
O=C(O)CN1CCNCCN(CC(=O)O)CCN(CC(=O)O)CCNCC1	> 100 µM	
CC(NC(=O)Cc1ccccc1)NC(=O)C(C)C(=O)Nc1ccccc1 (stereo not drawn)	> 100 µM	
CCOC(=O)c1c(-c2ccc(O)c(OC)c2)c(C#N)c(=S)n(C2OC(CO)C(O)C(O)C2O)c1-c1ccccc1 (stereo not drawn)	> 100 µM	
COC(C)(C)C1(O)CC[C@@H](C)CC1=O (stereo partly drawn)	> 100 µM	
Nc1ccc(N=Nc2c(S(=O)(=O)O)cc3ccccc3c2S(=O)(=O)O)cc1	> 100 µM	

system: SK-MEL-5 melanoma; assay: NCI-60 cell line screen, 48 h

SMILES	TGI
CC1=CCC([C@@](C)(O)CCCC(C)(C)N=C=S)CC1 (stereo partly drawn)	29.2 µM
CCN1CN(c2ccccc2)C2(CCN(CC3COc4ccccc4O3)CC2)C1=O (stereo not drawn)	32.1 µM
C=C1C(=O)CC2C1CC(=O)/C(C)=C/CCC(C)(O)C2O (stereo not drawn)	17.6 µM
O=C1C=C/C(=N\N=C(c2ccccc2)c2ccccc2)O1	> 10 µM
N[C@@H](Cc1ccccc1)C(=O)N1CCC[C@@H]1P(=O)(Oc1ccccc1)Oc1ccccc1	> 100 µM
O=c1[nH][nH]c(=O)n1CCCCCCn1c(=O)[nH][nH]c1=O	> 100 µM
